The values below come from patent US9944600B2, “Piperidine derivatives for GPR119 agonist” (CHONG KUN DANG PHARMACEUTICAL CORP., priority 2012, dated 2018).

SMILES strings stand for the structures.

Assay [1] has as its target T1, GPR 119 Receptor (Mus musculus, UniProt Q7TQP3).
T1 construct: from tissue; host or cells: whole animal: male C57/6J Jms mice (normal) or diet induced obesity C57BL/6J mice
T1 sequence (Q7TQP3 1-335): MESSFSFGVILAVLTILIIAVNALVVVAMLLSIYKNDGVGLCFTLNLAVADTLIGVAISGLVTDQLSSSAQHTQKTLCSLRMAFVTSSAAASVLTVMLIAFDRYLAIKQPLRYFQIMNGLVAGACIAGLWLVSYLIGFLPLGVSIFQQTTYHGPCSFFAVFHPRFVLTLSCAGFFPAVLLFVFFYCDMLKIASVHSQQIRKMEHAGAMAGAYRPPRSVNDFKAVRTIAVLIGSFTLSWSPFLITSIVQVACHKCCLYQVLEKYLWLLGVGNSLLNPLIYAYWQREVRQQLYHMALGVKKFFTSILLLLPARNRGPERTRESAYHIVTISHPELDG
Nature of the assay: Glucose tolerance test in normal mouse (animal test of activity for the GPR 119 receptor). The format is in vivo. As to conditions: normal male C57/6J Jms mice; for Decrease % of AUC at 10 mg/kg: oral glucose 2 g/kg, whole blood glucose AUC; for Decrease % of AUC (drop effect in blood glucose level): 10 mg/kg, oral 20% glucose 2 g/kg, whole blood glucose cAUC. The protocol:
Male C57/6J Jms mice of 6-7 weeks of age were fasted for 16 hours before the start of glucose tolerance test. The experimental animal groups consist of: • A. a vehicle group (10% EtOH, 20% HPBCD in saline), • B. a positive control group administered with MBX-2982 (10 mg/kg), and • C. test groups administered with compound 516, 581, 586, 612, 640, 644 or etc. (10 mg/kg).
Before compound administration, that is, at 0 hour, whole blood glucose level was determined using a Glucometer (ACCU-CHEK, Roche). At 30 minutes after compound administration, whole blood glucose level was determined once again, and 20% glucose (2 g/kg/10 mL) was administered orally. Whole blood glucose level was determined at 20, 40, 60, 80, and 120 minutes after 20% glucose administration. Area under the curve (AUC) of whole blood glucose level was obtained using GraphPad Prism 5.0. The effect of glucose tolerance was adjudged with the corrected area under the curve (cAUC), on which the base value of glucose area under the curve was excluded.

Assay [2] concerns the target T2, human GPR119 receptor (Homo sapiens, UniProt Q8TDV5).
T2 construct: host or cells: GeneBLAzer T-Rex GPR 119 CHO-K1 DA cells (CHO-K1)
T2 sequence (Q8TDV5 1-335): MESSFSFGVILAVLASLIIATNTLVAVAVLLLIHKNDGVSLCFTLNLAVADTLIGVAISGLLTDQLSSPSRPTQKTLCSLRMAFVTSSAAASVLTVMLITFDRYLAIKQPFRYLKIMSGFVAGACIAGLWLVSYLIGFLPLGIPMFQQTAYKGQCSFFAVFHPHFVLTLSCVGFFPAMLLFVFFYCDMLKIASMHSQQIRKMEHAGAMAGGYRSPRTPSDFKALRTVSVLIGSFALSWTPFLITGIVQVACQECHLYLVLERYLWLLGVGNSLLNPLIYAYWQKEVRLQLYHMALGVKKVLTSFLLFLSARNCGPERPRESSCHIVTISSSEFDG
As to the kind of experiment: Activity test for human GPR119 receptor (GeneBLAzer T-Rex GPR 119 CHO-K1 DA cells, fluorescence reporter). The format is cell-based. As to conditions: 5 hours treatment, ratio to vehicle control well; for % Activation / activity at 0.1 µM / activity at 1 µM / activity at 10 µM: human GPR119 CHO-K1 reporter cells; for activity at 0.1 µM / activity at 1 µM / activity at 10 µM: read-out: % Activation. On the procedure:
As a human GPR119 receptor expression cell for this test, the cell line “GeneBLAzer™ T-Rex GPR 119 CHO-K1 DA cells” that is commercially available from Invitrogen, was used. The cell was incubated in the DMEM media containing 1% dialyzed fetal bovine serum etc. The cell incubator was kept at constant temperature and constant humidity of 37° C., 5% CO2.
The human GPR119 receptor expressing cell was used to this test. Each of test compounds was added to be final concentrations of 0.1, 1, 10 μM in 96 well and tested in duplicate. A fixed amount of cell was added to each well of 96 well separately, and then treated with the test compound for 5 hours. After treatment of color development agent for 2 hours, the fluorescence value was determined with plate reader. To the luminous wavelength of control well, which was not treated with the agonist sample, but in which only a vehicle (i.e., cell) was contained, the ratio of the luminous wavelength of test well, which was treated with the agonist sample, was calculated, and then converted to obtain % value.
All the results were expressed as mean±SD, and each test groups and the control group were compared using student's t-test to adjudge the effects of each test groups.

Regarding `CCc1cnc(N2CCC(c3nc(COc4ccc(-n5cnnn5)cc4)cs3)CC2)nc1` [MBX-2982, reference compound], the “Decrease % of AUC at 10 mg/kg” value in assay [1] was 24%. Further, the “Decrease % of AUC (drop effect in blood glucose level)” value in assay [1] is 24%. In addition, the maximum % activation in assay [2] (human GPR119 receptor expressing cell, test concentrations 0.1, 1, 10 μM) turned out to be 200%. The “% Activation” value in assay [2] (test compound conc. 0.1 μM) is 180%; in assay [2] (test compound conc. 1 μM) it was 206%; in assay [2] (test compound conc. 10 μM) it was 200%.

Take `CC(C)(F)CN1CCC(COc2ccc(-c3ccc(C(=O)N4CCC[C@@H](O)C4)cc3)cc2)CC1` [Compound 612, (R)-(4′-((1-(2-fluoro-2-methylpropyl)piperidin-4-yl)methoxy)biphenyl-4-yl)(3-hydroxypiperidin-1-yl)methanone]: in assay [1], the “Decrease % of AUC at 10 mg/kg” value came out at 50% and the “Decrease % of AUC (drop effect in blood glucose level)” value turned out to be 50%.

`NC(=O)[C@@H]1CCCN1C(=O)c1ccc(-c2ccc(OCC3CCN(CC4(C(F)(F)F)CCC4)CC3)nc2)cc1` [Compound 581, (S)-1-(4-(6-((1-((1-(trifluoromethyl)cyclobutyl)methyl)piperidin-4-yl)methoxy)pyridine-3-yl)benzoyl)pyrrolidine-2-carboxamide]: the “Decrease % of AUC at 10 mg/kg” value in assay [1] came to 50%. Besides, the activity at 0.1 µM in assay [2] (test compound conc. 0.1 μM) came to 254%. Also, in assay [2] (test compound conc. 1 μM), the activity at 1 µM was found to be 344%. In addition, the activity at 10 µM in assay [2] (test compound conc. 10 μM) worked out at 273%.

As to `CC(C)(F)CN1CCC(COc2cnc(-c3ccc(C(=O)N4CCCC[C@@H]4C(N)=O)c(F)c3)nc2)CC1` [Compound 1037, (R)-1-(2-fluoro-4-(5-((1-(2-fluoro-2-methylpropyl)piperidin-4-yl)methoxy)pyrimidin-2-yl)benzoyl)piperidin-2-carboxamide], the “Decrease % of AUC at 10 mg/kg” value in assay [1] amounted to 42%. Besides, the activity at 0.1 µM in assay [2] (test compound conc. 0.1 μM) was 223%. Also, the activity at 1 µM in assay [2] (test compound conc. 1 μM) was 478%. For the same compound, the activity at 10 µM in assay [2] (test compound conc. 10 μM) is 439%.

`CC(C)(F)CN1CCC(COc2ccc(-c3ccc(C(=O)N4CC[C@@H](O)C4)c(F)c3)nc2)CC1` [Compound 768, (R)-(2-fluoro-4-(5-((1-(2-fluoro-2-methylpropyl)piperidin-4-yl)methoxy)pyridine-2-yl)phenyl)(3-hydroxypyrrolidine-1-yl)methanone]: in assay [1], the “Decrease % of AUC at 10 mg/kg” value was determined as 40%. Also, in assay [2] (test compound conc. 0.1 μM), the activity at 0.1 µM is 162%. Also, in assay [2] (test compound conc. 1 μM), the activity at 1 µM came to 260%. Also, in assay [2] (test compound conc. 10 μM), the activity at 10 µM came out at 313%.

Regarding `CC(C)(F)CN1CCC(COc2cnc(-c3ccc(C(=O)N4CCC[C@H]4C(N)=O)c(F)c3)nc2)CC1` [Compound 1032, (S)-1-(2-fluoro-4-(5-((1-(2-fluoro-2-methylpropyl)piperidin-4-yl)methoxy)pyrimidin-2-yl)benzoyl)pyrrolidine-2-carboxamide], the “Decrease % of AUC at 10 mg/kg” value in assay [1] came to 31%. Further, in assay [2] (test compound conc. 0.1 μM), the activity at 0.1 µM was 321%. Besides, in assay [2] (test compound conc. 1 μM), the activity at 1 µM was 459%. Further, the activity at 10 µM in assay [2] (test compound conc. 10 μM) came to 430%.

Regarding `CN(C)C(=O)c1ccc(-c2ccc(OCC3CCN(CC(C)(C)F)CC3)cc2)cc1` [Compound 516, 4′-((1-(2-fluoro-2-methylpropyl)piperidin-4-yl)methoxy)-N,N-dimethylbiphenyl-4-carboxamide], in assay [1], the “Decrease % of AUC at 10 mg/kg” value is 43%. In addition, the activity at 0.1 µM in assay [2] (test compound conc. 0.1 μM) is 185%. The activity at 1 µM in assay [2] (test compound conc. 1 μM) came out at 243%. Also, in assay [2] (test compound conc. 10 μM), the activity at 10 µM came out at 289%.

For the compound `CC(C)(F)CN1CCC(COc2cnc(-c3ccc(C(=O)N4CCC[C@H]4C(N)=O)c(F)c3)cn2)CC1` [Compound 944, (S)-1-(2-fluoro-4-(5-((1-(2-fluoro-2-methylpropyl)piperidin-4-yl)methoxy)pyrazine-2-yl)benzoyl)pyrrolidine-2-carboxamide], in assay [1], the “Decrease % of AUC at 10 mg/kg” value is 32%. Besides, in assay [2] (test compound conc. 0.1 μM), the activity at 0.1 µM was determined as 180%. In addition, the activity at 1 µM in assay [2] (test compound conc. 1 μM) was determined as 291%. Further, the activity at 10 µM in assay [2] (test compound conc. 10 μM) came to 310%.

Turning to `CC(C)(F)CN1CCC(COc2ccc(-c3ccc(C(=O)N4CC[C@H](O)C4)c(F)c3)cc2)CC1` [Compound 640, (S)-(3-fluoro-4′-((1-(2-fluoro-2-methylpropyl)piperidin-4-yl)methoxy)biphenyl-4-yl)(3-hydroxypyrrolidine-1-yl)methanone], in assay [1], the “Decrease % of AUC at 10 mg/kg” value is on record as 52%.

On to `CC(C)(F)CN1CCC(COc2cnc(-c3ccc(C(=O)N4CCC[C@H]4C(N)=O)cc3)cn2)CC1` [Compound 950, (S)-1-(4-(5-((1-(2-fluoro-2-methylpropyl)piperidin-4-yl)methoxy)pyrazine-2-yl)benzoyl)pyrrolidine-2-carboxamide], for which the “Decrease % of AUC at 10 mg/kg” value in assay [1] amounted to 39%. In addition, the activity at 0.1 µM in assay [2] (test compound conc. 0.1 μM) is 191%. In assay [2] (test compound conc. 1 μM), the activity at 1 µM worked out at 232%. Further, in assay [2] (test compound conc. 10 μM), the activity at 10 µM turned out to be 307%.

As to `O=C(c1ccc(-c2ccc(OCC3CCN(CC4(C(F)(F)F)CCC4)CC3)nc2)cc1F)N1CC[C@H](O)C1` [Compound 720, (8)-(2-fluoro-4-(6-((1-((1-(trifluoromethyl)cyclobutyl)methyl)piperidin-4-yl)methoxy)pyridine-3-yl)phenyl)(3-hydroxypyrrolidine-1-yl)methanone], the activity at 0.1 µM in assay [2] (test compound conc. 0.1 μM) amounted to 160%. Also, the activity at 1 µM in assay [2] (test compound conc. 1 μM) amounted to 228%. The activity at 10 µM in assay [2] (test compound conc. 10 μM) came out at 262%.

Turning to `CC(C)(F)CN1CCC(COc2ccc(-c3ccc(C(=O)N4CC[C@H](O)C4)cc3)cc2)CC1` [Compound 554, (S)-(4′-((1-(2-fluoro-2-methylpropyl)piperidin-4-yl)methoxy)biphenyl-4-yl)(3-hydroxypyrrolidine-1-yl)methanone], in assay [2] (test compound conc. 0.1 μM), the activity at 0.1 µM was found to be 141%. Moreover, the activity at 1 µM in assay [2] (test compound conc. 1 μM) was determined as 219%. Moreover, the activity at 10 µM in assay [2] (test compound conc. 10 μM) stood at 279%.

As to `NC(=O)[C@@H]1CCCN1C(=O)c1ccc(-c2ccc(OCC3CCN(CC4(C(F)(F)F)CCC4)CC3)c(F)c2)cc1` [Compound 837, (S)-1-(3′-fluoro-4′-((1-((1-(trifluoromethyl)cyclobutyl)methyl)piperidin-4-yl)methoxy)biphenylcarbonyl)pyrrolidine-2-carboxamide], the activity at 0.1 µM in assay [2] (test compound conc. 0.1 μM) was found to be 251%. The activity at 1 µM in assay [2] (test compound conc. 1 μM) was 296%. Further, the activity at 10 µM in assay [2] (test compound conc. 10 μM) was 306%.

With `CC(C)(F)CN1CCC(COc2ccc(-c3ccc(C(=O)N4CCC[C@H]4C(N)=O)c(F)c3)cc2)CC1` [Compound 644, (S)-1-(3-fluoro-4′-((1-(2-fluoro-2-methylpropyl)piperidin-4-yl)methoxy)biphenylcarbonyl)pyrrolidine-2-carboxamide], the activity at 0.1 µM in assay [2] (test compound conc. 0.1 μM) amounted to 213%. The activity at 1 µM in assay [2] (test compound conc. 1 μM) was found to be 295%. The activity at 10 µM in assay [2] (test compound conc. 10 μM) stood at 294%.

`CCC(F)(CC)CN1CCC(COc2cnc(-c3ccc(C(=O)N4CCCC[C@@H]4C(N)=O)c(F)c3)nc2)CC1` [Compound 1055, (R)-1-(4-(5-((1-(2-ethyl-2-fluorobutyl)piperidin-4-yl)methoxy)pyrimidin-2-yl)-2-fluorobenzoyl)piperidine-2-carboxamide]: in assay [2] (test compound conc. 0.1 μM), the activity at 0.1 µM was 407%. For the same compound, the activity at 1 µM in assay [2] (test compound conc. 1 μM) amounted to 474%. For the same compound, in assay [2] (test compound conc. 10 μM), the activity at 10 µM worked out at 408%.
